The results in this text go back to BindingDB's records for doi:10.3109/10799899109064686 (Center For Bio-Pharmaceutical Sciences, 1991).

Assay [1] concerns the target T1, Cysteinyl leukotriene receptor 1 (Cavia porcellus, UniProt Q2NNR5).
T1 sequence (Q2NNR5 whole entry): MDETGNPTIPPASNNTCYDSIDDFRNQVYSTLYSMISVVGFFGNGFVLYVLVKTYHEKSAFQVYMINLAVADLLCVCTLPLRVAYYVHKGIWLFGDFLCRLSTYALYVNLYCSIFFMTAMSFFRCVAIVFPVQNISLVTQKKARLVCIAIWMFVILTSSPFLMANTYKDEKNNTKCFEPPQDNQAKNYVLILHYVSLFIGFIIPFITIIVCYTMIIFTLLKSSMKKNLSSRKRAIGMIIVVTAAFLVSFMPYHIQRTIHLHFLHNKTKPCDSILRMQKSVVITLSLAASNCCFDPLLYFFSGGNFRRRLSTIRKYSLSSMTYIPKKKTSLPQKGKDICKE

In assay [2] the target is T2, Alpha-1A adrenergic receptor (Rattus norvegicus, UniProt P43140).
T2 sequence (P43140 whole entry): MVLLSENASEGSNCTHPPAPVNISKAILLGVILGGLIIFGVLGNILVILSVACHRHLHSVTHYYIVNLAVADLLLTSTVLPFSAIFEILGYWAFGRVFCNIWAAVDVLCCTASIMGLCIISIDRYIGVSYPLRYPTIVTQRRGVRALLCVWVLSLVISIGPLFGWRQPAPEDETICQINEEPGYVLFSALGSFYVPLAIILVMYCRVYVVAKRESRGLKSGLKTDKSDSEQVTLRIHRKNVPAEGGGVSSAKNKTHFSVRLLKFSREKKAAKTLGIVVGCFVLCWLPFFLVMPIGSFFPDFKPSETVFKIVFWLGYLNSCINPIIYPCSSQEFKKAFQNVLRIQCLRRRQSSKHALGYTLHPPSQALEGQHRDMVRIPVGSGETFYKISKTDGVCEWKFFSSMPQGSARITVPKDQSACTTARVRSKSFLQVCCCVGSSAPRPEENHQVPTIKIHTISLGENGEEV

The next assay has as its target T3, Adenosine receptor A1 (Rattus norvegicus, UniProt P25099).
T3 sequence (P25099 whole entry): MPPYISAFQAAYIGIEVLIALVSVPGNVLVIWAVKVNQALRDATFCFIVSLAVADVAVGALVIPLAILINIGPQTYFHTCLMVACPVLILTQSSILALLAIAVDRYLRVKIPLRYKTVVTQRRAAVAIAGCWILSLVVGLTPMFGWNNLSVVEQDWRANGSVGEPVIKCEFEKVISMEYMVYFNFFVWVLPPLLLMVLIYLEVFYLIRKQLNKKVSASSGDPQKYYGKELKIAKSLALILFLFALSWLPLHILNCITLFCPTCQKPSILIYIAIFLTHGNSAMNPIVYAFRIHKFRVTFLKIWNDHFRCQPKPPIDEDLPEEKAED

Assay [3] concerns the target T4, Gastrin/cholecystokinin type B receptor (Rattus norvegicus, UniProt P30553).
T4 sequence (P30553 whole entry): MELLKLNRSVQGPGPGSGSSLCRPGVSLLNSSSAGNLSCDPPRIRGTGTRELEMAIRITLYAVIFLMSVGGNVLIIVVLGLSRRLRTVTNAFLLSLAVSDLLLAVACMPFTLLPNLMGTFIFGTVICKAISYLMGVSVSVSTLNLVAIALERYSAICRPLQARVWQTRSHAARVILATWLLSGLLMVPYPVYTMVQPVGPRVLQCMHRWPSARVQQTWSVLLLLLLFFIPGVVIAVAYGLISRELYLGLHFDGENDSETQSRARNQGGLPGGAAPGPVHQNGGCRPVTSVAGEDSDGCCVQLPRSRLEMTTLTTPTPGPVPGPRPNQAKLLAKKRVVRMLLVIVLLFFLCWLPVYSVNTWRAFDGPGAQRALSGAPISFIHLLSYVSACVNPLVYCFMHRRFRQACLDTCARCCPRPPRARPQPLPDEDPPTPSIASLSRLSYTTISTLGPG

Assay [4] has as its target Substance-P receptor (Rattus norvegicus) (UniProt P14600).
In assay [5] the target is 5-hydroxytryptamine receptor 1B (Rattus norvegicus, UniProt P28564).
Chain of 5-hydroxytryptamine receptor 1B (P28564 whole entry): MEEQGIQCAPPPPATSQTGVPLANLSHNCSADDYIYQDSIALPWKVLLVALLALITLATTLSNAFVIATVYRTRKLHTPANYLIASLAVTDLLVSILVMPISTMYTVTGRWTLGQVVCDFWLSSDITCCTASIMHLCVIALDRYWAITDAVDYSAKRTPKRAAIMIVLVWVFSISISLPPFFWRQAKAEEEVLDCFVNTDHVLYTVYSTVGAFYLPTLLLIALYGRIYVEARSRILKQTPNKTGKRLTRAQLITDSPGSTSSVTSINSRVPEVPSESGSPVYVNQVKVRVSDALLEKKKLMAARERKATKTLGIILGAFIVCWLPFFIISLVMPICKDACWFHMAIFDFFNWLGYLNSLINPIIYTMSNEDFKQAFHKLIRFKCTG
Assay [6] has as its target T5, 5-hydroxytryptamine receptor 2C (Sus scrofa, UniProt G7ZKZ7).
T5 sequence (G7ZKZ7 whole entry): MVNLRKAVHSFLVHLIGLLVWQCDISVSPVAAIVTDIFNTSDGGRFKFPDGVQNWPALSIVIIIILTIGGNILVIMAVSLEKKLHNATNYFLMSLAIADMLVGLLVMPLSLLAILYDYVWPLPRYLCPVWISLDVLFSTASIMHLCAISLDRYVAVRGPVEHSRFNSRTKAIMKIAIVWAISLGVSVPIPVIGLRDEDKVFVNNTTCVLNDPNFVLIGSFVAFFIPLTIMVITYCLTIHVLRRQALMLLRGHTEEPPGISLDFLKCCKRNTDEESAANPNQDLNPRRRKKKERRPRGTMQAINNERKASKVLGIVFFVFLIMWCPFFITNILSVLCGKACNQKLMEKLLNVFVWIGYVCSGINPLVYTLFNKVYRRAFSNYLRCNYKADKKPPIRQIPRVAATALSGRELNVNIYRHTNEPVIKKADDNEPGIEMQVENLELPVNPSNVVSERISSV

Assay [7] has as its target T6, 5-hydroxytryptamine receptor 1A (Rattus norvegicus, UniProt P19327).
T6 sequence (P19327 whole entry): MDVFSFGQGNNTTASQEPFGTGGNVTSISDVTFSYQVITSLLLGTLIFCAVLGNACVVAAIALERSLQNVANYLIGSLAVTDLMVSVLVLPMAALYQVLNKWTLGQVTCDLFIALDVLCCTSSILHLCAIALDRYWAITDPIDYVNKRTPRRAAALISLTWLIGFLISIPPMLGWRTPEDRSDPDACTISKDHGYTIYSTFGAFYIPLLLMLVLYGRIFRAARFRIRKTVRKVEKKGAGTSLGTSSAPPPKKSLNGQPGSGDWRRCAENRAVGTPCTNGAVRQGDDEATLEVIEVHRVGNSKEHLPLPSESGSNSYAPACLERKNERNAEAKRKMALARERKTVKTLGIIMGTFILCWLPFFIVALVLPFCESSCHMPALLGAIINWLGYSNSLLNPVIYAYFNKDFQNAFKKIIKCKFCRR

The target in assay [8] is Muscarinic acetylcholine receptor M3 (Rattus norvegicus, UniProt P08483).
Chain of Muscarinic acetylcholine receptor M3 (P08483 whole entry): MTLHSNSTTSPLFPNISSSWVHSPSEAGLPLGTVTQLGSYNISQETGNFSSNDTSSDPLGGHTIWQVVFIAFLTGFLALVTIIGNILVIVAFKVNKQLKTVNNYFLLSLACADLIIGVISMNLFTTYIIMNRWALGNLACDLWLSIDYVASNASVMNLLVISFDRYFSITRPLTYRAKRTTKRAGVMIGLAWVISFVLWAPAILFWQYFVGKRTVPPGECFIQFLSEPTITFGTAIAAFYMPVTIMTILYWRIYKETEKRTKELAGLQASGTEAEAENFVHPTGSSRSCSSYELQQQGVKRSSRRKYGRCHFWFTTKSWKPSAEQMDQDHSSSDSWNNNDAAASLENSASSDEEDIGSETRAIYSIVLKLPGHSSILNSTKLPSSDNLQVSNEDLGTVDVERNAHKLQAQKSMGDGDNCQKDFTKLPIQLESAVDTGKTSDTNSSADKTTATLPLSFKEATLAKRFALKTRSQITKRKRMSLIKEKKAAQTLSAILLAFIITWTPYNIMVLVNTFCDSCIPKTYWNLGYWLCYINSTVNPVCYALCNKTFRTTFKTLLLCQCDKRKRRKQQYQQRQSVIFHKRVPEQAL
A further assay concerns the target D(1A) dopamine receptor (Rattus norvegicus, UniProt P18901).

Chain of Substance-P receptor (Rattus norvegicus) (P14600 whole entry, looked up): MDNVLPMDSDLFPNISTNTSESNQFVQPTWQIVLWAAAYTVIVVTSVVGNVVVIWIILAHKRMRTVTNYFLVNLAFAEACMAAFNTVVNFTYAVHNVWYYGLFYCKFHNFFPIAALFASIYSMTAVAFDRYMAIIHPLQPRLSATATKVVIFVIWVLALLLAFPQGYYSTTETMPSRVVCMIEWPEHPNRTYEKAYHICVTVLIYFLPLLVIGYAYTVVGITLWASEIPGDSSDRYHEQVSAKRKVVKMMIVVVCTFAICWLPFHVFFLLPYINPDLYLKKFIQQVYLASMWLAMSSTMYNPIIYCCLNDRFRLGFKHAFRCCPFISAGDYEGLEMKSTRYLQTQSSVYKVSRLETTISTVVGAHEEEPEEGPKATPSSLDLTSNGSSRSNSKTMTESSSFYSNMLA
Chain of D(1A) dopamine receptor (P18901 whole entry): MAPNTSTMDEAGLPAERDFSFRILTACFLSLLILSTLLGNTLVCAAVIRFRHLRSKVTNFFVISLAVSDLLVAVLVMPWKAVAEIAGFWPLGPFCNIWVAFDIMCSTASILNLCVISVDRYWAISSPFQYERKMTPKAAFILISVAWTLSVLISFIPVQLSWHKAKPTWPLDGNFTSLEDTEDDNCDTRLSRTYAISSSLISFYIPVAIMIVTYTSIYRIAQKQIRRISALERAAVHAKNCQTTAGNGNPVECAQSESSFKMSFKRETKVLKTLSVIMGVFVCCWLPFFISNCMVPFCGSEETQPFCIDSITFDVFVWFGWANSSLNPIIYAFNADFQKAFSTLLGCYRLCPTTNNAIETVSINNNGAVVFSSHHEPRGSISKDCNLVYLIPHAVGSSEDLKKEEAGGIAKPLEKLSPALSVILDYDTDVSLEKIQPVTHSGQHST

For `N=C(N)NC(=O)c1nc(Cl)c(N2CCCCCC2)nc1N`, the Ki in assay [1] is more than 10 µM; in assay [2], more than 10 µM; on Adenosine receptor A1, 1.2 µM; in [3], more than 10 µM; in [4] it was more than 10 µM; in [5] it was more than 10 µM. The Ki is 6.7 µM in assay [6], more than 10 µM in [7], 4.7 µM in [8] and more than 10 µM on D(1A) dopamine receptor.
Consider `N=C(N)NC(=O)c1nc(Cl)c(N)nc1N` [3,5-diamino-N-carbamimidoyl-6-chloropyrazine-2-carboxamide], for which the Ki was more than 10 µM in assay [1]; more than 10 µM in assay [2]; 11 µM on Adenosine receptor A1; more than 10 µM in assay [3]; more than 10 µM in [4]; more than 10 µM in [5]. Further, the Ki (in assay [6]; in assay [7]; in [8]; at D(1A) dopamine receptor) was more than 10 µM throughout.
On to `NC(=NCc1ccccc1)NC(=O)c1nc(Cl)c(N)nc1N` [NSC_108107], for which the Ki was more than 10 µM in [1]; 2 µM in [2]; 0.98 µM at Adenosine receptor A1; more than 10 µM in assay [3]; more than 10 µM in assay [4]; more than 10 µM in assay [5]. Moreover, the Ki in assay [6] is more than 10 µM; in assay [7], 1.9 µM; in [8] it was 2.8 µM; at D(1A) dopamine receptor, more than 10 µM.
